Experimental data taken from patent US8715673B2 (priority 2011, dated 2014).
Where “and” joins values, the source holds several entries; their conditions need not be identical. Equal values may be shown once. Read-outs that look alike come from different tables or passages of the source.

Key:
Conditions in all cases: in vivo
[1] = test system: Staphylococcus aureus strain USA300 (LAC); set-up: species or system S. aureus
[2] = test system: Staphylococcus aureus strain USA300 (LAC); set-up: species or system S. aureus; remark: listed apart in the source
[3] = test system: S. aureus strain USA300 (LAC)
[4] = test system: S. aureus strain USA300 (LAC); remark: listed apart in the source
[5] = test system: S. aureus strain USA300 (LAC); remark: listed apart in the source
[6] = test system: S. aureus strain USA300 (LAC); remark: listed apart in the source
[7] = test system: S. aureus strain USA300 (LAC); remark: listed apart in the source
[8] = test system: S. aureus strain USA300 (LAC); remark: listed apart in the source

Structure (SMILES): CC(=O)NC[C@H]1CN(c2ccc(N3CCOCC3)c(F)c2)C(=O)O1 [linezolid]
- Day 4 CFU/g tissue (log10), Mean CFU/g [1]: 5.2 CFU/g tissue (log10)
- Day 4 CFU/g tissue (log10), individual mice [1]: 5.7 CFU/g tissue (log10) and 5.2 CFU/g tissue (log10) and 6.0 CFU/g tissue (log10) and 4.5 CFU/g tissue (log10) and 4.8 CFU/g tissue (log10) and 5.1 CFU/g tissue (log10) and 5.4 CFU/g tissue (log10) and 4.9 CFU/g tissue (log10)
- Day 4 CFU/g tissue (log10), median [1]: 5.1 CFU/g tissue (log10)
- bacterial burden in the infected area, average [1]: about 5.2 log 10 CFU/g
- Average area of abscess (mm^2) Day 0 [2]: 0.0 mm^2
- Average area of abscess (mm^2) Day 1 [2]: 0.0 mm^2
- Average area of abscess (mm^2) Day 2 [2]: 6.6 mm^2
- Average area of abscess (mm^2) Day 3 [2]: 4.9 mm^2
- Average area of abscess (mm^2) Day 4 [2]: 3.7 mm^2
- mean area of skin abscess, day 1 [2]: about 0.0 mm^2
- mean area of skin abscess, day 2 [2]: ~6.6 mm^2
- mean area of skin abscess, day 3 [2]: ~4.9 mm^2
- mean area of skin abscess, day 4 [2]: ~3.7 mm^2
- Cumulative survival (%) Day 1 [3]: 100%
- Cumulative survival (%) Day 7 [3]: 70%
- cumulative survival at day 7 [3]: 70%
- survival rate at study end [3]: 60%
- Cumulative survival (%) Day 0 [4]: 100%
- Cumulative survival (%) Day 1 [4]: 100%
- Cumulative survival (%) Study end [4]: 40%
- Cumulative survival (%) Day 1 [5]: 100%
- Cumulative survival (%) Day 7 [5]: 70%
- cumulative survival at day 7 [5]: 70%
- survival rate at day 14 (study end) [5]: 70%
- CFU/g Kidney Tissue (log10), individual mouse [6]: 0.00 and 5.95 and 3.77 and 3.21
- CFU/g Kidney Tissue (log10), mean CFU/g [6]: 3.23
- CFU/g Lung Tissue (log10), individual mouse [6]: 3.13 and 7.64 and 4.36 and 3.55
- CFU/g Lung Tissue (log10), mean CFU/g [6]: 4.67
- Cumulative survival (%) Day 0 [7]: 100%
- Cumulative survival (%) Day 1 [7]: 100%
- Cumulative survival (%) Day 2 [7]: 60% and 100%
- Cumulative survival day 1 [7]: 100%
- Cumulative survival day 2 [7]: 60%
- Cumulative survival day 3 [7]: 20%
- Cumulative survival day 4 [7]: 20%
- Cumulative survival day 5 [7]: 20%
- Median survival time [7]: 4 days and 2.5 days
- survival rate [7]: 90%
- Cumulative survival (%) day 0, 2 h [8]: 100%
- Cumulative survival (%) day 0, 4 h [8]: 100%
- Cumulative survival (%) day 0, 8 h [8]: 100%
- Cumulative survival (%) day 0, 12 h [8]: 100%
- Cumulative survival (%) day 1 [8]: 100% and 60%
